T1: K^b sol (Mus musculus, UniProt P01901)
T1 sequence (P01901 22-305 limits assumed): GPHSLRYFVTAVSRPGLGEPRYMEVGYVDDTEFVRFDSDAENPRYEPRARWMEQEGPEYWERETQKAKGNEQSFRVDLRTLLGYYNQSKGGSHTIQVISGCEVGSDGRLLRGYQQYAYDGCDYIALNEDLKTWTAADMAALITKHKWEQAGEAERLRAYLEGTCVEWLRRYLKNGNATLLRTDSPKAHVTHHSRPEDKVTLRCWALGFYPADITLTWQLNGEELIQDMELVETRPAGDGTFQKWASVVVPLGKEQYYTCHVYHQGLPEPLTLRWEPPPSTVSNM
T1 sequence (P01887 21-119 partner): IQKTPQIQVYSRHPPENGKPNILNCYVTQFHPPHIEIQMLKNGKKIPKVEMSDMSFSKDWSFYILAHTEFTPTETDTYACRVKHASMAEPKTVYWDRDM

B1: ovalbumin (protein, UniProt P01012 2-386, looked up)
Ovalbumin: GSIGAASMEFCFDVFKELKVHHANENIFYCPIAIMSALAMVYLGAKDSTRTQINKVVRFDKLPGFGDSIEAQCGTSVNVHSSLRDILNQITKPNDVYSFSLASRLYAEERYPILPEYLQCVKELYRGGLEPINFQTAADQARELINSWVESQTNGIIRNVLQPSSVDSQTAMVLVNAIVFKGLWEKAFKDEDTQAMPFRVTEQESKPVQMMYQIGLFRVASMASEKMKILELPFASGTMSMLVLLPDEVSGLEQLESIINFEKLTEWTSSNVMEERKIKVYLPRMKMEEKYNLTSVLMAMGITDVFSSSANLSGISSAESLKISQAVHAAHAEINEAGREVVGSAEAGVDAASVSEEFRADHPFLFCIKHIATNAVLFFGRCVSP
notes: ovalbumin (Sigma Chem. Co.) osmotically loaded into the cells

Tests used:
[1] = target: T1, K^b sol; test: biochemical; conditions: read-out: dissociation rate constant
[2] = test system: B3/CD8 T-cell hybridoma; test: Antigen presentation assay: K^b/β2 Drosophila cells cocultured with T-cell hybridoma B3/CD8, IL-2 by CTLL 3H thymidine incorporation; assay type: cell-based, murine; conditions: Drosophila cells transfected with K^b/β2; peptide added to medium or protein osmotically loaded
Experimental: Osmotic loading of SC2 and 3T3 cells with ovalbumin protein was carried out as described by Moore, et al., Cell 54: 777-785 (1988). The assay procedure is as follows. In a 96-well dish, 1×10^5 Drosophila cells (with or without peptide/protein loaded) or 3T3 cells were cocultured with 1×10^5 B3/CD8 T-cell hybridoma cells in 200 μl of RPMI media supplemented with 10 fetal bovine serum. After 24 hours of incubation, 100 μl of the supernatant from these cultures was added to 100 μl of RPMI containing 5,000 CTLL cells. The cells were cocultured for 24 hours at 37° C. when 1 μCi of ^3 H thymidine (Amersham) was added. After a further incubation of 15 hours at 37° C., the incorporation of radiolabel into the CTLL cells was determined by scintillation counting.
Assays conducted with murine MHC also verified that the insect cells are capable of loading peptide onto the Class I molecules. Cells expressing as few as 200-500 MHC molecules containing a particular antigen can be detected by a T-cell. […] Upon antigenic stimulation, B3/CD8 produces IL-2, measured by ^3 H thymidine incorporation in IL-2-dependenT-cell line CTLL (Gillis, et al., J. Immunol. 120: 2027 91978)). Thus, by measuring the amount of IL-2 produced, one can assay for T-cell recognition. […]

Molecule | koff [1] [s⁻¹] | T-cell recognition (IL-2 production by B3/CD8) [2]
CC(C)C[C@H](NC(=O)CNC(=O)[C@H](CCC(N)=O)NC(=O)[C@H](Cc1ccc(O)cc1)NC(=O)[C@@H](NC(=O)[C@H](Cc1ccc(O)cc1)NC(=O)CNC(=O)[C@@H](N)CCCNC(=N)N)C(C)C)C(=O)O [[^125 I]VSV-8] | 0.00032 | –
B1 | – | no recognition occurred

Reference: US6255073A (priority 1998, dated 2001)
